Data as given in ChEMBL document CHEMBL1201862, “PubChem BioAssay data set” (2004).
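96-well plates; 48 h exposure; 5 concentrations. Endpoints by linear interpolation between flanking doses. Not reached: highest tested concentration assigned. GI50: concentration for 50% inhibition of growth.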 Calls of active or inactive are those of the source. Rule as the data show it: active = GI50 up to about 1.1 µM and inactive = higher.

Key:
Assay in all cases: inhibition of tumour cell growth, NCI panel, 48 h
LXFL 529 = tested on: LXFL 529
KM-20L2 = tested on: KM-20L2
XF498 = tested on: XF498
SNB-78 = tested on: SNB-78
DMS-114 = tested on: DMS-114
HOP-18 = tested on: HOP-18
DMS-273 = tested on: DMS-273
RXF 631 = tested on: RXF 631
DLD-1 = tested on: DLD-1

Measured: GI50

Cc1nc(N)sc1C(=O)/C=C\c1ccc2c(c1)OCO2
inactive: LXFL 529 > 100 µM | KM-20L2 > 100 µM | XF498 > 100 µM | SNB-78 > 100 µM | DMS-114 > 100 µM | HOP-18 > 100 µM | DMS-273 > 100 µM | RXF 631 > 100 µM | DLD-1 > 100 µM
